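Test compounds were applied to cells in 96-well plates for 48 hours at 5 doses. GI50 is the concentration that inhibits growth by half.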 Activity calls are given as the source filed them. No stated cut-off is given here; in the data, active = GI50 up to about 1.1 µM and inactive = higher.
What was measured:
Test in all cases: growth of human tumour cells (NCI), 48 h
CAKI-1 = test system: CAKI-1
HCT-15 = test system: HCT-15
HOP-92 = test system: HOP-92
Hs-578T = test system: Hs-578T
K562 = test system: K562
KM12 = test system: KM12
LOX IMVI = test system: LOX IMVI
MDA-MB-435 = test system: MDA-MB-435
NCI-H226 = test system: NCI-H226
NCI-H23 = test system: NCI-H23
OVCAR-8 = test system: OVCAR-8
RXF 393 = test system: RXF 393
SF-268 = test system: SF-268
SK-MEL-2 = test system: SK-MEL-2
SN12C = test system: SN12C
TK-10 = test system: TK-10
UACC-257 = test system: UACC-257
UO-31 = test system: UO-31
SK-MEL-5 = test system: SK-MEL-5
IGROV-1 = test system: IGROV-1

| Structure (SMILES) | GI50 (CAKI-1) | GI50 (HCT-15) | GI50 (HOP-92) | GI50 (Hs-578T) | GI50 (K562) | GI50 (KM12) | GI50 (LOX IMVI) | GI50 (MDA-MB-435) | GI50 (NCI-H226) | GI50 (NCI-H23) | GI50 (OVCAR-8) | GI50 (RXF 393) | GI50 (SF-268) | GI50 (SK-MEL-2) | GI50 (SN12C) | GI50 (TK-10) | GI50 (UACC-257) | GI50 (UO-31) | GI50 (SK-MEL-5) | GI50 (IGROV-1) |
| --- | --- | --- | --- | --- | --- | --- | --- | --- | --- | --- | --- | --- | --- | --- | --- | --- | --- | --- | --- | --- |
| Nc1sc2c(c1C(=O)c1ccc(Cl)c(Cl)c1)CCCC2 | 56.8 µM (inactive) | 50.6 µM | 24.5 µM (inactive) | 70.8 µM (inactive) | 25.5 µM (inactive) | 22.3 µM (inactive) | 40.3 µM (inactive) | 30.8 µM (inactive) | > 100 µM (inactive) | 45.3 µM (inactive) | 67 µM (inactive) | 27.2 µM (inactive) | 45.8 µM (inactive) | 15 µM (inactive) | > 100 µM (inactive) | 41.9 µM (inactive) | 54.8 µM (inactive) | 58.2 µM (inactive) |  |  |
| CCOC(=O)Nc1cc2c(c(N)n1)N=C(c1ccc(OC)cc1)CN2 | < 0.0001 µM (active) | 0.000621 µM | 0.508 µM (active) | 0.000494 µM (active) | < 0.01 µM (active) | 0.000446 µM (active) | 0.000315 µM (active) | < 0.0001 µM (active) | 0.368 µM (active) | 0.0692 µM (active) | 0.000895 µM (active) | 0.0112 µM (active) | 0.00119 µM (active) | < 0.01 µM (active) | 0.00436 µM (active) | 0.361 µM (active) | 0.186 µM (active) | 0.206 µM (active) | < 0.0001 µM (active) |  |
| O=C1/C(=C\c2cccc(Oc3ccccc3)c2)SC(c2ccccc2)N1c1ccc(Cl)cc1 (configuration not stated) | > 60.3 µM (inactive) | 7.55 µM | 61.1 µM (inactive) | > 67.9 µM (inactive) | 2.64 µM (inactive) | 12.6 µM (inactive) | 15.8 µM (inactive) | 2.24 µM (inactive) | > 100 µM (inactive) | 15.8 µM (inactive) | 32.9 µM (inactive) | 19.5 µM (inactive) | 18.2 µM (inactive) | > 47.5 µM (inactive) | 26.7 µM (inactive) | > 64.9 µM (inactive) | 41.9 µM (inactive) | 16 µM (inactive) | 4.79 µM (inactive) |  |
| Cc1occc1C(=S)Nc1ccc(Cl)c(C(=O)OC(C)C2CC2)c1 (configuration not stated) | 18.7 µM (inactive) | 18.5 µM | 23.5 µM (inactive) | 27.7 µM (inactive) |  | 16.3 µM (inactive) | 19.4 µM (inactive) | 24.8 µM (inactive) | 15.5 µM (inactive) | 15.6 µM (inactive) | 18.3 µM (inactive) | 20.4 µM (inactive) | 22.6 µM (inactive) | 18.3 µM (inactive) | 18 µM (inactive) | 37.5 µM (inactive) | 30.3 µM (inactive) | 14.7 µM (inactive) | 15.3 µM (inactive) | 16 µM (inactive) |
| CC(=N)OC1CC2CCC1(C)C2(C)C (configuration not stated) | > 100 µM (inactive) | > 100 µM | > 100 µM (inactive) | > 100 µM (inactive) | > 100 µM (inactive) | > 100 µM (inactive) | > 100 µM (inactive) | > 100 µM (inactive) | > 100 µM (inactive) | > 100 µM (inactive) | > 100 µM (inactive) | > 100 µM (inactive) | > 100 µM (inactive) |  | > 100 µM (inactive) | > 100 µM (inactive) | > 100 µM (inactive) | > 100 µM (inactive) | > 100 µM (inactive) | > 100 µM (inactive) |
| CSc1nc(SC)c2c(C)c(Br)[nH]c2n1 | > 100 µM (inactive) | > 100 µM | > 100 µM (inactive) | > 100 µM (inactive) |  | > 100 µM (inactive) | > 100 µM (inactive) | > 100 µM (inactive) | > 100 µM (inactive) | > 100 µM (inactive) | > 100 µM (inactive) | > 100 µM (inactive) | > 100 µM (inactive) | > 100 µM (inactive) | > 100 µM (inactive) | > 100 µM (inactive) |  | > 100 µM (inactive) | > 100 µM (inactive) | > 100 µM (inactive) |

Source: ChEMBL document CHEMBL1201862, “PubChem BioAssay data set” (2004)
